Assay results as given in patent publication US20260242768A1, “ACETYL-COENZYME A CARBOXYLASE MUTANTS” (CIBUS US LLC, priority 2023, published 2026).

Experiments:
D2078G/P2083T line = assay type: in vivo, Oryza sativa; conditions: sprayed with clethodim
Description: (§1) The results of herbicide rate tolerance field trials of the D2078G/P2083T line can be seen below in Table 11. The edited plants were sprayed with clethodim, and plant injury was visually scored at (7) seven, (14) fourteen, and (28) days after application of the herbicide (“DAA”) on a 0-100% percentage scale for chlorosis of newest leaf-tips and growing points.

[1] = test system: D2078G/P2083T edited rice line; assay type: in vivo, Oryza sativa; conditions: all clethodim spray rates, nine environments
Description: The clethodim herbicide chosen contained 2.0 pounds active ingredient per gallon. Using a randomized completed block design with three replicates, four clethodim spray rates (5.76, 8.30, 12.10 and 16.00 fluid ounces per acre) were compared to an untreated control (“UTC”). Phytotoxicity rates to access crop response were visually scored (7) seven, (14) fourteen and (28) twenty-eight days after clethodim application (“DAA”) using a 0-100% percentage chlorosis scale. All plots were maintained weed free using additional herbicides tolerant by all rice lines. Yield was collected using a research plot combine to harvest the small plot, and yields were standardized to 12.5% moisture before being converted to a percentage of the untreated control.

rice Oryza sativa = test: Regenerated edited rice shoots established in soil, greenhouse: plant growth, herbicide tolerance, fertility (Example 9); assay type: in vivo
Description: The D2078G mutation was introduced into a native rice Oryza sativa ACCase gene utilizing PEG delivery of CRISPR-Cas and GRONs into protoplasts. Examples of target spacer sequences for sgRNA targeting the rice ACCase gene are shown, but not limited to, those listed in the below Table 9. Sequence information for exemplary GRONs is shown, but not limited to those listed in the below Table 10. Rice protoplasts were isolated from cell suspension cultures initiated from Cypress mature seed-derived embryogenic calli. A non-coding D2078G GRON with RNP (CRISPR-Cas9 protein plus gRNA complex) was introduced into rice protoplasts using PEG-mediated delivery method. Following PEG treatment, protoplasts were cultured in liquid medium and kept stationary in the dark at 26±2° C. for 2 weeks. After 2 weeks, culture plates were gently scraped to release the divided protoplasts from the bottom of the plates and added equal volume of fresh liquid medium. These cultures were transferred on a rotatory shaker and incubated in the dark at 26±2° C. […]
as §1

O. sativa ACCase = test: Growth of Saccharomyces cerevisiae pseudodiploid acc1Δ strains carrying wild-type or mutant OsACCase plasmids, streaked onto plates with increasing concentrations of clethodim (Examples 5, 7, 10; Tables 8, 12); assay type: cell-based, Oryza sativa; design: key to growth, 0 mM clethodim / growth, 0.025 mM clethodim / growth, 0.1 mM clethodim / growth, 0.25 mM clethodim / growth, 0.5 mM clethodim / growth, 1 mM clethodim: ++ = Strong growth; + = Poor growth; − = No growth; conditions: Table 12, galactose 0.01%
Description: Mutations at position N2097S and V2098A were combined to determine if point mutations at both positions gave increased resistance compared to either single point mutation. Each of these respective mutations (N2097S, V2098A and N2097S/V2098A) were generated by standard methods and introduced into a Saccharomyces cerevisiae pseudodiploid acc1Δ strain with a plasmid containing wild-type O. sativa ACCase gene. Once each of these mutations were introduced by recombination mediated mutagenesis, the OsACCase wild-type plasmid was removed, and mutation strains were confirmed by sequencing. The three strains, along with a series of controls including a WT strain (negative control), an I1781L mutant strain, and a D2078G mutant strain (positive control), were streaked onto plates with increasing concentrations of clethodim. […] These observations argue that N2097S is an enhancer of V2098A tolerance.
Edits at position S1784N and A1785G were combined to determine if point mutations at both of these two positions gave increased resistance compared to either single point mutation. Each of these respective mutations (S1784N, A1785G and S1784N/A1785G) were generated by standard methods and introduced into a Saccharomyces cerevisiae pseudodiploid acc1Δ strain with a plasmid containing wild-type O. sativa ACCase gene. Once each of these mutations were introduced by recombination mediated mutagenesis, the OsACCase wild-type plasmid was removed, and mutation strains were confirmed by sequencing. The three strains, along with a series of controls including a WT strain (negative control), an I1781L mutant strain, a D2078G mutant strain (positive control), and a V2075L mutant strain were streaked onto plates with increasing concentrations of clethodim.
Each of these respective mutations (D2078G, P2083T, D2078G/P2083T) were generated by standard methods and introduced into a Saccharomyces cerevisiae pseudodiploid acc14 strain with a plasmid containing the wild-type O. sativa ACCase gene. Once plasmids bearing each of these mutations, introduced using recombination-mediated mutagenesis, the OsACCase wild-type plasmid was removed, and strains bearing each mutant plasmid were confirmed by sequencing. The three strains, along with a series of controls including a wild-type strain (negative control), an I1781L mutant strain (medium control), and a pre-existing D2078G mutant strain (positive control) were streaked onto plates with increasing concentrations of clethodim.

[2] = Cha et al., Pesticide Biochemistry and Physiology 111 (2014) 7-13; cited from earlier work
[3] = test system: rice (Oryza sativa) plastidal ACCase; test: Clethodim tolerance of rice ACCase mutations, yeast complementation assay (Examples 1-3); assay type: cell-based
Description: Joachimiak M. et al Proc Natl Acad Sci U.S.A. 1997 Sep. 2; 94 (18): 9990-5 and WO/2013/074524 and WO/2013/074524 each describe methods to complement a yeast (Saccharomyces cerevisiae) strain lacking the native acc1 gene with either a wt or mutated form of a chimeric plastidal ACCase gene from a plant such as rice (Oryza sativa). Methods to introduce one or more mutations listed herein into the chimeric ACCase gene and subsequently complement the acc1 lacking yeast strain are well known by an individual skilled in the art. In the art assays are known for measuring tolerance of a mutated plant ACCase gene versus a herbicide that is a member of the aryloxyphenoxypropanoate, cyclohexanedione, and/or phenylpyrazoline families of herbicides such as clethodim, sethoxydim, fluazifop, haloxyfop, quizalofop, and pinoxaden (Joachimiak M. et al Proc Natl Acad Sci U.S.A. 1997 Sep. 2; 94 (18): 9990-5 and WO/2013/074524).
A library of random mutations in the rice (Oryza sativa) plastidal ACCase gene was generated and screened for clethodim tolerant clones using a yeast complementation assay.

Substance	meristem necrosis (D2078G/P2083T line)	yield (D2078G/P2083T line; compared to the untreated control plants)	plant injury (D2078G/P2083T line; visually scored 7, 14, 28 DAA)	plant injury [1]	yield [1]	herbicide tolerance (rice Oryza sativa)	growth, 0 mM clethodim (O. sativa ACCase; plate with 0 mM clethodim)	growth, 0.025 mM clethodim (O. sativa ACCase; plate with 0.025 mM clethodim)	growth, 0.1 mM clethodim (O. sativa ACCase; plate with 0.1 mM clethodim)	growth, 0.25 mM clethodim (O. sativa ACCase; plate with 0.25 mM clethodim)	growth, 0.5 mM clethodim (O. sativa ACCase; plate with 0.5 mM clethodim)	growth, 1 mM clethodim (O. sativa ACCase; plate with 1 mM clethodim)	tolerance to the fluazifop herbicide [2]	clethodim tolerance ([3]; ACCase mutation tested with the herbicide clethodim)	effect on clethodim tolerance when combined with D2078G, V2075L or V2098A ([3]; combined with either D2078G, V2075L or V2098A)
D2078G/P2083T: double mutant ACCase; yeast strain and edited rice line	limited meristem necrosis except at the highest rates of herbicide application	increased yield	low plant injury	low plant injury	good yield	herbicide tolerance	++	++	++	++	++	+	–	–	–
N2097D: mutated ACCase, numbering per SEQ ID NO: 2	–	–	–	–	–	–	–	–	–	–	–	–	associated with tolerance to the fluazifop herbicide	neither the N2097S nor the N2097D single mutations provide detectable clethodim tolerance	produces opposing results
